Earlier results on 1 substance are cited in patent publication US6638954B2, “Δ2-1,2,3-TRIAZOLINE ANTICONVULSANTS AND THEIR ACTIVE METABOLITE ANALOGUES, THE AMINOALKYLPYRIDINES, ARE EXCITATORY AMINO ACID ANTAGONISTS AND ANTIISCHEMIC AGENTS, USEFUL IN THE TREATMENT OF CEREBRAL ISCHEMIA RESULTING FROM STROKE” (K and K Biosciences, Inc., priority 2000, dated 2003).

For series [1], the system named is N-methyl D-aspartate (NMDA)-induced seizures. As to conditions: mouse.
A further series deals with amygdala-kindled rats. As to conditions: non-sedative, non-neurotoxic doses.
The test system of another series is entorhinal-kindled rats. As to conditions: non-sedative, non-neurotoxic doses.

Consider “1-(p-Chlorophenyl)-5-(4-pyridyl)-Δ^2-1,2,3-triazoline [Table IV (2)]”, for which the “Protection against NMDA-induced seizures/convulsions” value in series [1] is “complete protection”. Also, the “ED50, protection against after-discharge seizures and generalized convulsions” value in the series on amygdala-kindled rats was 215 ± 61 mg/kg; in the series on entorhinal-kindled rats, 423 ± 45 mg/kg.
